In paper doi:10.1101/2023.03.03.530471v2 (bioRxiv, 2023):

Legend:
[1] = target: recombinant full length PICK1 (Rattus norvegicus, UniProt Q9EP80); test: SEC of recombinant PICK1 incubated with mPD5; format: binding; conditions: PICK1 40 µM + mPD5 10 µM (4:1), Superdex200 Increase 10/300; PICK1 alone 10.9 mL
[2] = Solubility by visual inspection; format: physicochemical; conditions: 10 mM PBS, molar equivalent of 250 mg/mL
naive mice = test: Barnes maze, spatial learning and memory; format: in vivo, mouse

Chain of recombinant full length PICK1 (Q9EP80 whole entry): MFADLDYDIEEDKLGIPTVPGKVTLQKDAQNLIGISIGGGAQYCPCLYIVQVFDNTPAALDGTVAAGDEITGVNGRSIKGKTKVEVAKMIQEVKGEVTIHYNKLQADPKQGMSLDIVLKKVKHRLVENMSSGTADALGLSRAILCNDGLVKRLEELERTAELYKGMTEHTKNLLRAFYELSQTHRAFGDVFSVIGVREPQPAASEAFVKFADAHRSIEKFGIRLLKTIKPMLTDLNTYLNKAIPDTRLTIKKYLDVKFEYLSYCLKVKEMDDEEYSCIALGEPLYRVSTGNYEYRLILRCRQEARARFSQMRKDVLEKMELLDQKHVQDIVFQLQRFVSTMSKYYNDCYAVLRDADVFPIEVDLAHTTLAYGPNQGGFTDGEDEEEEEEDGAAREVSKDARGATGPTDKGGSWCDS

SMILES: CCCCCCCCCCCCCC(=O)N(CCOCCOCCC(=O)N[C@@H](Cc1c[nH]cn1)C(=O)N[C@@H](Cc1c[nH]c2ccccc12)C(=O)N[C@@H](CC(C)C)C(=O)N[C@@H](CCCCN)C(=O)N[C@H](C(=O)O)C(C)C)CCOCCOCCC(=O)N[C@@H](Cc1c[nH]cn1)C(=O)N[C@@H](Cc1c[nH]c2ccccc12)C(=O)N[C@@H](CC(C)C)C(=O)N[C@@H](CCCCN)C(=O)N[C@H](C(=O)O)C(C)C [mPD5, myristoyl-NPEG4-(HWLKV)2]
- peak elution volume of PICK1 in presence of mPD5 [1]: two peaks at 8 mL and 9 mL
- solubility in PBS [2]: ≥ 130 mM
- total distance moved, probe test day five (naive mice; s.c. 10 µmol/kg 60 min before maze): no difference
- total distance moved, following reversal learning (naive mice; s.c. 10 µmol/kg, probe test day nine): no difference was observed
